According to patent publication US20250170090A1, “METHOD FOR PREVENTING OR TREATING DISEASE OR DISORDER ASSOCIATED WITH ANTINEOPLASTIC AGENT” (ONQUALITY PHARMACEUTICALS CHINA LTD., priority 2022, published 2025):

Assays:
[1] = tested on: chemotherapy-induced hand-foot syndrome; assay: Prevention of chemotherapy-induced hand-foot syndrome in rat models (Table 5); type: in vivo, SD rats
Method: Rat animal model was constructed. After several days, the rats develop hand-foot syndrome in their paws. After one week of acclimatization (about 200 g), the SD rats are divided into groups of 10 rats each, followed by gavage administration experiment. The chemotherapy drugs were dissolved, and each rat was given a gavage dose of 1 mL/100 g. After gavage, the rats were fixed with a fixed cylinder. NO-NSAID ointment was applied to the paws of the rats in the medication group, and blank ointment was applied to the paws of the rats in the blank group (as blank control). […] Table 5 lists the animal experimental combinations of chemotherapy drugs and NO-NSAID ointment, as well as the corresponding experimental results (where the value in the control rate column=the incidence rate of hand-foot syndrome in the blank group−the incidence rate of hand-foot syndrome in the treatment group).

[2] = tested on: human oral keratinocytes (HOK); assay: CCK-8 cell viability: alleviation of proliferative toxicity of anti-tumor agents on HOK (Table 8-2); type: cell-based; details: NO-NSAID 100 μM
Method: (§1) Experiments were conducted using various epithelial cells: Examples 47-51 used human immortalized keratinocytes (HaCaT) with corresponding results in Table 8-1; Examples 52-56 used human oral keratinocytes (HOK) with results in Table 8-2; Examples 57-61 used gastric epithelial cells (GES-1) with results in Table 8-3; Examples 62-66 used human intestinal epithelial cells (FHs 74 Int) with results in Table 8-4.
(§2) The cultured cells were digested the suspended, counted, and seed into a 96-well plate with 5,000-10,000 cells per well. The wells are divided into the following groups: blank control group, anti-tumor agent group, anti-tumor agent+NO-NSAID group, anti-tumor agent solvent group, NO-NSAID solvent control group. Wherein each well of each group contained a basic medium, and the final liquid volume contained in each well was about 100 μL. The grouping situation was as follows: • 1) Blank control group: no solution was added except normally replacing the medium; • 2) Anti-tumor agent group: added the anti-tumor agent solution (the final concentration was shown in Table 8-1 to Table 8-4, the solvent of the anti-tumor agent solution was DMSO); • 3) Anti-tumor agent+NO-NSAID group: added the anti-tumor agent solution and the NO-NSAID solution (the final concentrations of anti-tumor agent and NO-NSAID were shown in Table 8-1 to Table 8-4, and according to the solubility of NO-NSAID, the solvent of NO-NSAID solution was selected as ethanol or sterile water, and minor volume differences in each group were adjusted by added the corresponding solvent); • 4) Anti-tumor agent solvent group: an equal volume of DMSO as contained in the corresponding anti-tumor agent solution in Group 2) was added; • 5) NO-NSAID control group: the same volume and type of solvent (for example, ethanol or sterile water) corresponding to the NO-NSAID contained in group 3) was added.
(§3) The anti-tumor agent solvent group was not involved in data processing and was only used as a reference for evaluating experimental system error. The NO-NSAID solvent control group was used for data correction to eliminate the influence of the solvent on the results.
(§4) After culturing for 24-48 hours, the Cell Counting Kit-8 (CCK-8) detection kit (C0037, Shanghai Beyotime Biotechnology Co., Ltd., Beyotime Biotechnology) was used to determine the cell viability. This allows for the calculation of the proliferative toxicity of anti-tumor agent on cell and the mitigating effect of NO-NSAID on proliferative toxicity. The results were statistically analyzed and plotted using GraphPad Prism 6.0 software and t test.

[3] = tested on: human intestinal epithelial cells (FHs 74 Int); assay: CCK-8 cell viability: alleviation of proliferative toxicity of anti-tumor agents on FHs 74 Int (Table 8-4); type: cell-based; details: NO-NSAID 100 μM
Method: as §1, §2, §3, §4

[4] = tested on: human immortalized keratinocytes (HaCaT); assay: CCK-8 cell viability: alleviation of proliferative toxicity of anti-tumor agents on HaCaT (Table 8-1); type: cell-based; details: NO-NSAID 100 μM, percentage increase in viable cells vs anti-tumor agent alone
Method: as §1, §2, §3, §4

[5] = tested on: gastric epithelial cells (GES-1); assay: CCK-8 cell viability: alleviation of proliferative toxicity of anti-tumor agents on GES-1 (Table 8-3); type: cell-based, human; details: NO-NSAID 100 μM
Method: as §1, §2, §3, §4

[6] = tested on: hand-foot syndrome caused by anti-tumor agents; assay: Treatment of established hand-foot syndrome caused by anti-tumor agents in rats (Table 4); type: in vivo; details: Encorafenib 80 mg/kg once every two days; ointment 1% wt; Days 7
Method: After the rats (about 200 g) were fed and adapted for one week, the rats were divided into groups of 10 rats for gavage administration experiment. The anti-tumor agent was dissolved in a mixed solution of Cremophor EL:ethanol=1:1, and diluted with PBS to the required concentration (diluted about 3 times with PBS solution) before gavage. […] Specific experimental procedures followed those outlined in the prevention experiment. […] Table 4 lists the animal experiments using various anti-tumor agents and NO-NSAID ointment, as well as the corresponding experimental results (where the value in the control rate column=the incidence rate of hand-foot syndrome in the blank group−the incidence rate of hand-foot syndrome in the treatment group).

[7] = Capecitabine 4000 mg/kg once a day, ointment 2% wt, Days 40

## CC(C)Cc1ccc(C(C)C(=O)OCO/N=[N+](\[O-])N(C)C)cc1 (centres unmarked) [Compound A4]
[1]; Capecitabine 4000 mg/kg once a day, ointment 0.50% wt, Days 40
  Control rate: 25.00%
[1]; [7]
  Control rate: 57.14%
[1]; Cytarabine 120 mg/kg twice a day, ointment 0.50% wt, Days 30
  Control rate: 28.57%
[2]; Afatinib (10 μM)
  Response rate % (average): 34%
[2]; Cabozantinib (5 μM)
  Response rate % (average): 24%
[2]; Dabrafenib (10 μM)
  Response rate % (average): 2%
[2]; Everolimus (5 μM)
  Response rate % (average): −3%
[2]; Infigratinib (15 μM)
  Response rate % (average): 18%
[2]; Lapatinib (5 μM)
  Response rate % (average): 0%
[2]; Lenvatinib (10 μM)
  Response rate % (average): 33%
[2]; Olmutinib (10 μM)
  Response rate % (average): 24%
[2]; Regorafenib (5 μM)
  Response rate % (average): 15%
[2]; Selumetinib (5 μM)
  Response rate % (average): −2%
[2]; Sorafenib (5 μM)
  Response rate % (average): 29%
[2]; Sunitinib (5 μM)
  Response rate % (average): 11%
[3]; Afatinib (10 μM)
  Response rate % (average): 33%
[3]; Cabozantinib (5 μM)
  Response rate % (average): 28%
[3]; Dabrafenib (10 μM)
  Response rate % (average): −9%
[3]; Everolimus (5 μM)
  Response rate % (average): 18%
[3]; Infigratinib (15 μM)
  Response rate % (average): 17%
[3]; Lapatinib (5 μM)
  Response rate % (average): 26%
[3]; Lenvatinib (10 μM)
  Response rate % (average): 38%
[3]; Olmutinib (10 μM)
  Response rate % (average): 16%
[3]; Regorafenib (5 μM)
  Response rate % (average): 31%
[3]; Selumetinib (5 μM)
  Response rate % (average): 14%
[3]; Sorafenib (5 μM)
  Response rate % (average): 24%
[3]; Sunitinib (5 μM)
  Response rate % (average): 23%
[4]; Afatinib (10 μM)
  Response rate % (average): 31%
[4]; Cabozantinib (5 μM)
  Response rate % (average): 37%
[4]; Dabrafenib (10 μM)
  Response rate % (average): 1%
[4]; Everolimus (5 μM)
  Response rate % (average): −4%
[4]; Infigratinib (15 μM)
  Response rate % (average): 12%
[4]; Lapatinib (5 μM)
  Response rate % (average): 25%
[4]; Lenvatinib (10 μM)
  Response rate % (average): 17%
[4]; Olmutinib (10 μM)
  Response rate % (average): 26%
[4]; Regorafenib (5 μM)
  Response rate % (average): 36%
[4]; Selumetinib (5 μM)
  Response rate % (average): 3%
[4]; Sorafenib (5 μM)
  Response rate % (average): 32%
[4]; Sunitinib (5 μM)
  Response rate % (average): 16%
[5]; Afatinib (10 μM)
  Response rate % (average): 16%
[5]; Cabozantinib (5 μM)
  Response rate % (average): 29%
[5]; Dabrafenib (10 μM)
  Response rate % (average): 6%
[5]; Everolimus (5 μM)
  Response rate % (average): 23%
[5]; Infigratinib (15 μM)
  Response rate % (average): 36%
[5]; Lapatinib (5 μM)
  Response rate % (average): 22%
[5]; Lenvatinib (10 μM)
  Response rate % (average): 36%
[5]; Olmutinib (10 μM)
  Response rate % (average): 21%
[5]; Regorafenib (5 μM)
  Response rate % (average): 29%
[5]; Selumetinib (5 μM)
  Response rate % (average): 2%
[5]; Sorafenib (5 μM)
  Response rate % (average): 22%
[5]; Sunitinib (5 μM)
  Response rate % (average): 0%

## CC(=O)Oc1ccccc1C(=O)OCc1no[n+]([O-])c1C(N)=O [Compound A6]
[6]
  Response rate: 16.67%
[1]; [7]
  Control rate: 42.86%
